Assays:
NOTCH1 = test: Endogenous NOTCH1 cleavage inhibition in MDA-MB-231 cells (NICD Western blot after EDTA activation); assay type: cell-based; conditions: for NICD levels at 100 nM: MDA-MB-231, 100 nM
Experimental: To extend the study to a more physiological system, we assessed endogenous NOTCH1 cleavage inhibition using the triple‐negative breast cancer line MDA‐MB‐231 (Fig 6A). Full‐length blots are shown in source data for Fig 6. NOTCH1 cleavage was detected by Western blotting using the Cell Signaling neo‐epitope NICD antibody. […] The inhibition of endogenous APP in MDA‐MB‐231 cells was also tested by detecting accumulation of APP COOH‐terminal fragments (APP‐CTFs). […] Figure 6D summarized the APP‐CTF band intensities normalized for DMSO group. The original blots are available in source data for Fig 6.
Short‐term endogenous NOTCH1 cleavage inhibition was tested in the triple‐negative breast cancer cell lines MDA‐MB‐231 (ATCC, Manassas, VA). Cells were plated in 60 mm dishes and maintained as monolayer cultures in DMEM medium supplemented with 10% FBS, 1% penicillin/streptomycin, 1% L‐glutamine (Life Technologies), and incubated at 37°C in a humidified 5% CO2 incubator. After the cells reached ~75% confluency, cultures were pretreated with GSIs for 1 h in DMEM at 37°C in a 5% CO2 incubator. GSIs were tested at concentrations of 0, 0.1, 0.5, 2.5, and 12.5 μM. Then, EDTA (5 mM, Life Technologies) was added to the cell cultures to induce Notch activation for 5 min. Following incubation, cell extracts were prepared by lysing cells in RIPA buffer (Santa Cruz Biotechnology) containing protease and phosphatase inhibitors. Western blotting was performed using Cleaved NOTCH1 (Val1744) antibody (Cell Signaling) with β‐actin (Santa Cruz Biotechnology) as loading control. Band intensities were normalized for actin using ImageJ Software (NIH, USA).
Sandwich ELISAs used for Aβ detection were performed as previously described (Murphy et al, 1999; Ran et al, 2014). Briefly, Aβ and Aβ‐like peptides in conditioned media were captured with Ab5 antibody and detected with horseradish peroxidase labeled mAb 4G8 (Biolegend). Synthetic Aβ1‐40 was used as standard. All ELISAs were developed with TMB substrate (KPL, Gaithersburg, Maryland, USA). Bis‐Tris precast gels (Biorad, Hercules, CA, USA) were used for all SDS–PAGE. Monoclonal anti‐FLAG M2 antibody (Sigma) and Aβ1‐16 antibody 6E10 (Covance) were used for Western blotting at 1:1,000 dilution. Anti‐CD74 In‐1 antibody (BD Bioscience, San Jose, CA, USA) was used for A20 cell lysate Western blotting at dilution of 1:1,000. MDA‐MB‐231 cell extracts were prepared by lysing cells in RIPA buffer containing protease and phosphatase inhibitors. The lysates were kept on ice for 30 min and vortexed every 10 min, and then centrifuged at 4°C for 10 min at 1,000 g. The supernatants were collected, and protein concentrations were determined by Bradford Assay. Pan‐NOTCH1 antibody (C‐20) (Santa Cruz Biotechnology) and cleaved NOTCH1 (Val1744) antibody ([…]) were used at 1:500 and 1:100 dilution in the test of endogenous NOTCH1 inhibition with β‐actin expression used as loading control. β‐actin antibody was used at 1:1,000 dilution (Sigma). Band intensities normalized for actin using densitometry analysis with ImageJ Software (NIH, USA).

SPPL2b = target: T1, SPPL2b (Homo sapiens, UniProt Q8TCT7); test: Cell-based SPPL2b cleavage assay, stable SPPL2b/FBA overexpressing HEK 293 cell line (ELISA); conditions: 16 h
T1 construct: expressed in transfected cells
T1 sequence (Q8TCT7 26-592): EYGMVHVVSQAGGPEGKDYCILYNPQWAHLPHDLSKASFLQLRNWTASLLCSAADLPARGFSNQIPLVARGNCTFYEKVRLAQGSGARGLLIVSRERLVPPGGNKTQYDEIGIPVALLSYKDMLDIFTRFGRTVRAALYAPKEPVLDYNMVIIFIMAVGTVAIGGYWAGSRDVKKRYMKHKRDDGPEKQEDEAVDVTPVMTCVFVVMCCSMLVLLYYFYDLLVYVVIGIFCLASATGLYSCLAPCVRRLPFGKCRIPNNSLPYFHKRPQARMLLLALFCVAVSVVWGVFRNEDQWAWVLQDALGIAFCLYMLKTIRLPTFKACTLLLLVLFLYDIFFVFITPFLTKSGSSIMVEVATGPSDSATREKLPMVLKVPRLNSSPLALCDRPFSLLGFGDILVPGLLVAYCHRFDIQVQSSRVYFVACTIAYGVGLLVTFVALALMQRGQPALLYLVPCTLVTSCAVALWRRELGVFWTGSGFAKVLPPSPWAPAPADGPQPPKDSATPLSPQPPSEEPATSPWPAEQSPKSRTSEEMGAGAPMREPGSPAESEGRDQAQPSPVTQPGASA
Experimental: It is known that SPP/SPPLs can be inhibited by select GSIs (Ran et al, 2015). Here, we tested the effect of various GSIs on the SPP/SPPL family members SPPL2a, SPPL2b, and SPP. We co‐transfected SPPLs with the BRI2 based chimeric SPP/SPPL substrate that we have referred to as FBA into HEK 293t cells. SPPL‐specific inhibitor (ZLL)2‐ketone was used as positive control. DAPT was not tested here as we and others have previously reported it had no effect on SPP activity at concentration up to 100 μM (Weihofen et al, 2003). […] Dose responses of BMS‐906024, RO4929097, and PF‐3084014 were performed with a similar strategy, but a stable SPPL2b/FBA overexpressing HEK 293 cell line was used instead of transient transfection (Fig 8B). […] Table 3 compares the GSIs’ potencies on γ‐secretase and SPPL2b. The average of IC50s on cNOTCH1sub, cNOTCH2sub, cNOTCH4sub, and APP was used as the GSI's potency on γ‐secretase.
SPPL2a, SPPL2b, SPP, and chimeric substrate FBA were generated as previously described (Ran et al, 2015). A20 cells (TIB‐208; ATCC, Manassas, VA, USA) were cultured in RPMI‐1640 medium (ATCC) supplied with 10% fetal bovine serum, 1% penicillin/streptomycin, and 0.05 mM 2‐mercaptoethanol (Life Technologies). Various concentrations of GSIs and (ZLL)2‐ketone as indicated in figures were applied to transfected HEK 293t cells at 70–90% confluence or A20 cells at a density of 5 × 10^5 cells/ml with fresh media in 48‐well format for 16 h. Cells and conditioned media were used for WB, IP, and ELISA.
Sandwich ELISAs used for Aβ detection were performed as previously described (Murphy et al, 1999; Ran et al, 2014). Briefly, Aβ and Aβ‐like peptides in conditioned media were captured with Ab5 antibody and detected with horseradish peroxidase labeled mAb 4G8 (Biolegend). Synthetic Aβ1‐40 was used as standard. All ELISAs were developed with TMB substrate (KPL, Gaithersburg, Maryland, USA). Bis‐Tris precast gels (Biorad, Hercules, CA, USA) were used for all SDS–PAGE. […] The supernatants were collected, and protein concentrations were determined by Bradford Assay. […]

## CN1C(=O)[C@@H](NC(=O)[C@H](CCC(F)(F)F)[C@H](CCC(F)(F)F)C(N)=O)N=C(c2ccccc2)c2ccccc21 [BMS‐906024]
NOTCH1
  NICD levels at 100 nM: reduced NICD to levels equal or lower than baseline
SPPL2b
  IC50: 28.3 nM

## O=C(O)CC[C@H]1CC[C@@](c2cc(F)ccc2F)(S(=O)(=O)c2ccc(Cl)cc2)CC1 [MK‐0752]
NOTCH1; MDA-MB-231
  concentration reducing NICD to background levels or below: ≥ 0.5 µM

## CCC[C@H](N[C@H]1CCc2cc(F)cc(F)c2C1)C(=O)Nc1cn(C(C)(C)CNCC(C)(C)C)cn1 [PF‐3084014]
NOTCH1
  NICD levels at 100 nM: reduced NICD to levels equal or lower than baseline
SPPL2b
  IC50: 1160 nM

## CC(C)(C(=O)NCC(F)(F)C(F)(F)F)C(=O)N[C@@H]1C(=O)Nc2ccccc2-c2ccccc21 [RO4929097]
NOTCH1
  NICD levels at 100 nM: reduced NICD to levels equal or lower than baseline
SPPL2b
  IC50: 72.8 nM

## CC(C)[C@H](O)C(=O)N[C@@H](C)C(=O)N[C@@H]1C(=O)N(C)CCc2ccccc21 [Semagacestat]
NOTCH1; MDA-MB-231, 100 nM to 12.5 μM, 1 h pretreatment then 5 mM EDTA 5 min
  NICD levels: reduced NICD concentrations to near‐baseline levels at all concentrations tested
